The experiment in a line: Stopped-flow water flux (Pf) in control liposomes, effect of mercurial reagents. The class given is biochemical. As to conditions: 1 mM mercurial. As to the method:
Purified AQP1 was stored overnight at 0° C. or frozen for several days at -80° C. prior to reconstitution. Reconstitution into proteoliposomes was carried out in a final volume of 1 ml containing 60-90 μg of purified AQP 1 protein in chromatography buffer, 9 mg of bath-sonicated E. coli phospholipid, 1.25% (w/v) octyl glucoside, and 50 mM Tris-HCl (pH 7.5). The mixture was briefly blended on a vortex mixer and incubated for 20 minutes on ice. […] Protein and phospholipid were measured as described by Ambudkar & Maloney (J. Biol. Chem., 1986, 261:10079-10086).
Permeability measurements. Membrane permeability measurements (Pf) were measured by exposing AQP1 proteoliposomes or control liposomes to an osmotic gradient by rapid mixing with an equal volume of another solution containing buffer A plus sufficient sucrose to increase osmolality in the mixed solutions to a value 120% of that in the original solution. This was performed with a stopped-flow fluorometer (SF.17MV, Applied Photophysics, Leatherhead, U.K.) with a measured dead time of 0.7 ms. […] Extravesicular carboxyfluorescein fluorescence was completely quenched using anti-fluorescein antibody (Harris et al., 1990, Am. J. Physiol. 259:F366-F371). […]

As to `[Cl][Hg][Cl]` [HgCl2], the “effect on the Pf of control liposomes” value is on record as “Neither pCMBS nor HgCl2 had any effect”.
